Assay results reported in ChEMBL document CHEMBL5252515, “Discovery of 6-Amino-2-{[(1S)-1-methylbutyl]oxy}-9-[5-(1-piperidinyl)pentyl]-7,9-dihydro-8H-purin-8-one (GSK2245035), a Highly Potent and Selective Intranasal Toll-Like Receptor 7 Agonist for the Treatment of Asthma” (J Med Chem, 2016).
Active and inactive are the calls of the source. No cut-off for these calls is given here.

What was measured:
[1] = Toxicity in female rat assessed as NOAEL after 14 days; conditions: in vivo, time 14 day
Cynomolgus monkey = test: Induction of plasma cytokines in cynomolgus monkey; type: functional, organism-based; conditions: Macaca fascicularis
[2] = molecular target: T1, Toll-like receptor 7 (Macaca fascicularis) (UniProt B3Y652); test: In vivo target occupancy at TLR7 in cynomolgus monkey assessed as fold increase in GBP1 mRNA expression in nasal scrape at 30 ng/kg administered intranasally incubated for 24 hrs by TaqMan analysis (reference value: 2.4); type: functional
T1 sequence (whole entry): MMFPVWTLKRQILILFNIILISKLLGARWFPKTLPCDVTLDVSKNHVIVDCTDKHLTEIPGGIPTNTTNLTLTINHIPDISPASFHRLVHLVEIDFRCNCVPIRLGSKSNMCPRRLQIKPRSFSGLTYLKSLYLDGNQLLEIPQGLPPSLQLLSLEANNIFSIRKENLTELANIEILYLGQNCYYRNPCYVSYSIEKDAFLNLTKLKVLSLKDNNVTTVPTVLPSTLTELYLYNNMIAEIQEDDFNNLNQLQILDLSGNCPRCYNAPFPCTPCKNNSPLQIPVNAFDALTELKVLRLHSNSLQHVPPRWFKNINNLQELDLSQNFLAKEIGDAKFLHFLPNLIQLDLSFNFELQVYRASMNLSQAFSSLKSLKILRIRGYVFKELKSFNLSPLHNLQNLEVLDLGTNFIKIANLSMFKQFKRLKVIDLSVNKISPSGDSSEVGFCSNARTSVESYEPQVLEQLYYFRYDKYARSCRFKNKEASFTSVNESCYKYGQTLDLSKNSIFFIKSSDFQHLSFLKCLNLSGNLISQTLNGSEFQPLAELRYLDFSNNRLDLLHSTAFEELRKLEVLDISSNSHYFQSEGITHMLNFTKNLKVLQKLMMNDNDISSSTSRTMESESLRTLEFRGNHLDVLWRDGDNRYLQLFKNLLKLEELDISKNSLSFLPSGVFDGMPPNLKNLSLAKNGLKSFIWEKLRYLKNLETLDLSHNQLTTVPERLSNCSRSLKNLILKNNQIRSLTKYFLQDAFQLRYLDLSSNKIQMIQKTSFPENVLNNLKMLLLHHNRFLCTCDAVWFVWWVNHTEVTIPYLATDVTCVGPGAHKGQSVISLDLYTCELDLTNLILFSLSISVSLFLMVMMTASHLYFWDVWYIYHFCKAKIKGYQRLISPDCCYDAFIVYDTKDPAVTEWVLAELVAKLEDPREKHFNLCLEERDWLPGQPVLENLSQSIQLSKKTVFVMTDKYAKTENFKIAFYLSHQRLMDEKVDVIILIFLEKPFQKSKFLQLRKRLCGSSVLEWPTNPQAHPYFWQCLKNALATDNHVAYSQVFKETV

[3] = molecular target: T1, Toll-like receptor 7 (Macaca fascicularis); test: In vivo target occupancy at TLR7 in cynomolgus monkey assessed as fold increase in CXCL10 mRNA expression in nasal scrape at 3 ng/kg administered intranasally incubated for 24 hrs by TaqMan analysis (reference value: 1.6); type: functional
[4] = molecular target: T1, Toll-like receptor 7 (Macaca fascicularis); test: In vivo target occupancy at TLR7 in cynomolgus monkey assessed as fold increase in CXCL10 mRNA expression in nasal scrape at 30 ng/kg administered intranasally incubated for 24 hrs by TaqMan analysis (reference value: 1.6); type: functional
[5] = Toxicity in male rat assessed as NOAEL after 8 weeks; conditions: in vivo
PBMC [6] = test: Immunomodulatory activity in human PBMC assessed as IL-10 production incubated for 6 days in presence of allergen house dust mite; type: functional, cell-based; conditions: time 6.0 day
PBMC [7] = test: Immunomodulatory activity in human PBMC assessed as IFNalpha production incubated for 6 days in presence of allergen house dust mite; type: functional, cell-based; conditions: time 6.0 day
Toll-like receptor 7 [8] = molecular target: T2, Toll-like receptor 7 (Homo sapiens, UniProt Q9NYK1); test: Agonist activity at TLR7 in human whole blood assessed as induction of IL-10 production after 20 hrs by electrochemiluminescence assay; type: tissue-based
T2 sequence (Q9NYK1 whole entry): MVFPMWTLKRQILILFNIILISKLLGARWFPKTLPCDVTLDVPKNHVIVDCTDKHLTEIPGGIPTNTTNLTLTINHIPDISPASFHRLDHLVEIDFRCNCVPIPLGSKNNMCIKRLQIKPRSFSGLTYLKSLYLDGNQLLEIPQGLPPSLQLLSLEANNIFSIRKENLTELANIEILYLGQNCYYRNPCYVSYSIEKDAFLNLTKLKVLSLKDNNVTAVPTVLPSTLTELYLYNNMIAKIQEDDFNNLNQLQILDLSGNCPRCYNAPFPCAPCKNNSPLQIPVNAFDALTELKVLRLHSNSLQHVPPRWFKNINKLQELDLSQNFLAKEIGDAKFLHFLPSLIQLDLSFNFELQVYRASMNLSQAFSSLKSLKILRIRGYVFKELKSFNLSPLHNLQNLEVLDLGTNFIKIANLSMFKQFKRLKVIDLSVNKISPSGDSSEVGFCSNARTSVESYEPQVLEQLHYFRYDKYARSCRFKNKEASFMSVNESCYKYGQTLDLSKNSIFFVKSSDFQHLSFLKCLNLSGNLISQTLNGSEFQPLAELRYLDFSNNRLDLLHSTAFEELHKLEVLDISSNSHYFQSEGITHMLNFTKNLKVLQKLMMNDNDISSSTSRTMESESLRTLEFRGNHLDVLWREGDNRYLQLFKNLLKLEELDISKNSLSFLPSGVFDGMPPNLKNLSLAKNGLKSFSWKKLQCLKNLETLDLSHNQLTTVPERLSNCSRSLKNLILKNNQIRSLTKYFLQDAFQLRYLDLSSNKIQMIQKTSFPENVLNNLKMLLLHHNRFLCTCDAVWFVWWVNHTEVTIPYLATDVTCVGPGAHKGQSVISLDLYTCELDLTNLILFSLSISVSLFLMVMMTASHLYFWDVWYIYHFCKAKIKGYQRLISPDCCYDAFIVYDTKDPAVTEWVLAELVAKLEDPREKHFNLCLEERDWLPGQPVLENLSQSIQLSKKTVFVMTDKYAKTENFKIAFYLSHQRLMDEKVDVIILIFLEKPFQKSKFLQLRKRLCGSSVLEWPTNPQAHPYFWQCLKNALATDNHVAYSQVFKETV

[9] = Toxicity in male rat assessed as NOAEL after 14 days; conditions: in vivo, time 14 day
Toll-like receptor 7 [10] = molecular target: T2, Toll-like receptor 7; test: Agonist activity at TLR7 in human whole blood assessed as induction of IFNalpha production after 20 hrs by electrochemiluminescence assay; type: tissue-based
PBMC [11] = test: Immunomodulatory activity in human PBMC assessed as reduction in house dust mite induced IL-5 level after 6 days; type: functional, cell-based; conditions: dose 0.01-10000 nM, time 6.0 day
[12] = molecular target: T1, Toll-like receptor 7 (Macaca fascicularis); test: In vivo target occupancy at TLR7 in cynomolgus monkey assessed as fold increase in IFIT2 mRNA expression in nasal scrape at 30 ng/kg administered intranasally incubated for 24 hrs by TaqMan analysis (reference value: 2.1); type: functional
[13] = molecular target: T1, Toll-like receptor 7 (Macaca fascicularis); test: In vivo target occupancy at TLR7 in cynomolgus monkey assessed as fold increase in OAS3 mRNA expression in nasal scrape at 30 ng/kg administered intranasally incubated for 24 hrs by TaqMan analysis (reference value: 0.9); type: functional

fold change (FC) [2]: 97.6 | fold change (FC) [3]: 230 | fold change (FC) [4]: 638 | EC50 (Toll-like receptor 7 [8]): 251 nM | EC50 (Toll-like receptor 7 [10]): 0.891 nM | fold change (FC) [12]: 124 | fold change (FC) [13]: 101
Compound: CCC[C@H](C)Oc1nc(N)c2[nH]c(=O)n(CCCCCN3CCCCC3)c2n1 [GSK-2245035]
NOAEL at 336 h [1]: 0.772 mg/kg/day | Activity (Cynomolgus monkey): inactive | NOAEL at 1344 h [5]: 0.406 mg/kg | Activity (PBMC [6]): Active | Activity (PBMC [7]): Active | NOAEL at 336 h [9]: 0.453 mg/kg/day | Activity (PBMC [11]): Dose-Dependent Effect
